Article PMC11591284, “Development and Optimization of a Redox Enzyme-Based Fluorescence Biosensor for the Identification of MsrB1 Inhibitors” (Antioxidants, 2024)

Legend:
[1] = target: T1, Recombinant mouse MsrB1 protein (Mus musculus, UniProt Q9JLC3, U95C); experiment: Microscale thermophoresis (MST) binding assay; conditions: read-out: KD ± SD
T1 construct: made in house; host or cells: E. coli (inferred; Rosetta2 (DE3) pLysS and pET-28a are described only for the RIYsense fusion)
T1 sequence (Q9JLC3 1-116 U95C): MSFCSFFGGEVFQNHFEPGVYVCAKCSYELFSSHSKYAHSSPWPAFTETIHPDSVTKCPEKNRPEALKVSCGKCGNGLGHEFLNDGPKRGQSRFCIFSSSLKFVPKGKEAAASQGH
Procedure: MST analysis was performed using the Monolith NT.115 system (NanoTemper Technologies, München, Germany). Recombinant mouse MsrB1 protein was labeled with the Monolith His-Tag Labeling Kit RED-tris-NTA 2nd Generation (NanoTemper Technologies, Germany). The protein was prepared at a concentration of 200 nM, and the RED-tris-NTA 2nd Generation dye was diluted to 100 nM in the PBS-T (Tween 20) buffer. A mixture of 100 μL of 200 nM protein and 100 μL of 100 nM dye was incubated at RT for 30 min. After incubation, the sample was centrifuged at 13,000 rpm at 4 °C for 10 min, and the supernatant was transferred to a new tube, completing the protein labeling process and preparing the sample for analysis. Inhibitor compounds were serially diluted in DMSO, starting at a concentration of 1.25 mM (1:1 dilution, 16 points), and then each of the 16 dilutions was further diluted fivefold with PBS-T buffer. Next, 10 μL of the diluted compounds were mixed with 10 μL of the labeled protein, followed by resuspension and incubation for 10 min at RT. The samples were loaded into capillaries in serial order and analyzed using the Monolith NT.115 system at 60% LED power and 60% MST power. Changes in normalized fluorescence, dependent on the concentration of the compounds after 30 s of MST on time, were analyzed to determine Kd values.

[2] = target: T2, MsrB1 (Mus musculus, UniProt Q9JLC3, U95C); experiment: MsrB1 activity assay by HPLC with dabsylated MetO as substrate; assay type: biochemical; conditions: dabsyl-MetO to dabsyl-Met
T2 construct: made in house
T2 sequence (Q9JLC3 1-116 U95C): T1 sequence (Q9JLC3 1-116 U95C)
Procedure: Methionine sulfoxide reductase B1 activity was determined using dabsylated MetO as substrate. […] The reaction was conducted for 30 min at 37 °C in a water bath and stopped by adding 200 μL of acetonitrile and vortexing. The reaction product, dabsyl-Met, was analyzed by HPLC using a ZORBAX RX-C18 column (5 μm; 4.6 × 150 mm). The column was pre-equilibrated with 0.14 M sodium acetate (pH 6.1), 0.5 mL/L triethylamine, and 30% acetonitrile. A total of 50 μL of the sample was loaded onto the column. The flow rate was 1 mL·min^−1, and a linear gradient elution mode was used (30% to 70%). Dabsyl-Met was detected via absorbance at 436 nm.

[3] = system: bone marrow-derived macrophages (BMDMs); experiment: Cytokine mRNA expression in LPS-stimulated bone marrow-derived macrophages; assay type: cell-based, mouse; conditions: WT BMDMs, 1 μM inhibitor, LPS stimulation 24 h
Procedure: Bone marrow-derived macrophages (BMDMs) were generated by culturing bone marrow cells isolated from 8-week-old male C57BL/6 mice and MsrB1 knockout (KO) mice. The cells were cultured in high-glucose Dulbecco’s Modified Eagle Medium (DMEM) (Cytiva, Marlborough, MA, USA) supplemented with 10% fetal bovine serum (FBS), 100 U·mL^−1 penicillin-streptomycin (Gibco, Waltham, MA, USA), 20 mM HEPES (Gibco, Waltham, MA, USA), and 50 ng·mL^−1 recombinant mouse macrophage colony-stimulating factor (M-CSF) (BioLegend, San Diego, CA, USA). On day 3, 10 mL of fresh medium containing 50 ng·mL^−1 M-CSF was added to the cultures. On day 5, cells were treated with 1 μM MsrB1 inhibitors. On day 6, cells were treated with LPS (BioLegend, San Diego, CA, USA) for 24 h. Following treatment, cells were harvested, and total RNA was extracted using the High-Capacity cDNA Reverse Transcription Kit (Applied Biosystems, Foster City, CA, USA). Gene expression of IL-10 and IL-1rn mRNA was analyzed using the QuantStudio 3 Real-Time PCR system.

[4] = target: T2, MsrB1; experiment: NADPH consumption assay of MsrB1 activity; assay type: biochemical; conditions: absorbance at 340 nm, 900 s vs 0 min; approximately 50 μM compound; DMSO control 0.638
Procedure: The activity of MsrB1 was assessed over a 900-s period in a 20 mM 4-(2-hydroxyethyl)-1-piperazineethanesulfonic acid (HEPES) buffer at pH 7.5 and 37 °C. The reaction mixture contained 500 μM N-AcMetO, 6 μM MsrB1, 2 μM mouse thioredoxin, 1 μM mouse thioredoxin reductase, 50 μM NADPH, and approximately 50 μM of a chemical compound. All components, except for the chemical compound, substrate (N-AcMetO), and NADPH, were pre-mixed. The chemical compound was added and incubated for 10 min. NADPH (50 μM) and 500 μM N-AcMetO were added before absorbance measurements began. The rate of NADPH oxidation was monitored by measuring absorbance at 340 nm every 30 s until the reaction was complete.

[5] = system: C57BL/6 mice; experiment: TPA-induced acute skin inflammation (ear edema) model; assay type: in vivo, mouse; conditions: WT mice, 0.5 μM inhibitor in drinking water for 21 days, topical TPA
Procedure: Six-week-old male wild-type (WT) C57BL/6 mice and MsrB1 knockout (KO) mice were used in this experiment. The mice were provided with 50 mL water containing either 0.5 μM MsrB1 inhibitors dissolved in 1% DMSO or 1% DMSO alone (control) for 21 days. After this period, 50 μg·mL^−1 of TPA was applied to the right ear of each mouse, while the left ear received acetone as a control. Twenty hours after the initial TPA application, a second dose was administered. The mice were then sacrificed, and ear tissue samples were collected. The tissues were fixed in 10% formalin, dehydrated, embedded in paraffin, and sectioned into slices 3–5 μm thick. The sections were deparaffinized, rehydrated, and stained with hematoxylin and eosin (H&E) for histological examination under microscopy.

| Kd [1] [nM] | Relative enzyme activity of MsrB1 ([2]; 10 µM compound) | NADPH (Abs15min/Abs0min) [4] | SMILES | Relative enzyme activity of MsrB1 ([2]; 100 µM and 500 µM compound) | IL-1rn mRNA expression [3] | IL-10 mRNA expression [3] | Dermal area of TPA-treated auricle (H&E) compared to wild-type control mice [5] |
| --- | --- | --- | --- | --- | --- | --- | --- |
| 28.3 ± 1.21 | no inhibition was observed | 0.942 | CCc1ccc(C2=NN(c3ccc(S(N)(=O)=O)cc3)C(c3ccc(O)cc3)C2)cc1 (centres unmarked) [A06, 4-[5-(4-ethylphenyl)-3-(4-hydroxyphenyl)-3,4-dihydropyrazol-2-yl]benzenesulfonamide] | decreased in a concentration-dependent manner | reduced | significantly reduced | substantially more enlarged |
| 97.1 ± 1.6 | no inhibition was observed | 0.918 | CCc1ccc(-n2c3nc(=O)[nH]c(=O)c-3cc3c(Cl)cccc32)cc1 [B03, 6-chloro-10-(4-ethylphenyl)pyrimido[4,5-b]quinoline-2,4-dione] | decreased in a concentration-dependent manner | reduced | significantly reduced | substantially more enlarged |
